According to US10208089B2, “Modulation of complement activity” (priority 2014, dated 2019):
pIC50: −log10 of the molar value. Starred links: 1 amine or outer side, 2 acyl side, 3 side chain; linkers in the order of their positions; H or OH if unused. Positions of bridges follow the written chain, without caps; N, C: chain ends. Non-standard residues stand in square brackets, D forms with d. Residues, ends and D or L forms follow the SMILES beside them. Trp(7-aza) = N[C@@H](Cc1c[nH]c2ncccc12)C(=O)O; Phe(3-Cl) = N[C@@H](Cc1cccc(Cl)c1)C(=O)O; mXylylene = c1cc(C[*:1])cc(C[*:2])c1; pXylylene = c1cc(C[*:2])ccc1C[*:1]; dPhg = N[C@@H](C(=O)O)c1ccccc1; Chg = N[C@H](C(=O)O)C1CCCCC1; Phg = N[C@H](C(=O)O)c1ccccc1; Tle = CC(C)(C)[C@H](N)C(=O)O; NMeS = CN[C@@H](CO)C(=O)O; Pra = C#CC[C@H](N)C(=O)O; Nva = CCC[C@H](N)C(=O)O; Sar = CNCC(=O)O

Molecular target: C5 (Homo sapiens, UniProt P01031)
Assay: Human hemolysis assay (RBC lysis assay using complete human sera)
Type: cell-based
Set-up: with complete human sera (Complement Technology, Tyler Tex.) and polypeptides; tissue Complement Technology, Tyler Tex; host or cells: complete human serum
[1] = inhibition of lysis of antibody-sensitized sheep erythrocytes, complete human sera

Chain of C5 (P01031 19-1676): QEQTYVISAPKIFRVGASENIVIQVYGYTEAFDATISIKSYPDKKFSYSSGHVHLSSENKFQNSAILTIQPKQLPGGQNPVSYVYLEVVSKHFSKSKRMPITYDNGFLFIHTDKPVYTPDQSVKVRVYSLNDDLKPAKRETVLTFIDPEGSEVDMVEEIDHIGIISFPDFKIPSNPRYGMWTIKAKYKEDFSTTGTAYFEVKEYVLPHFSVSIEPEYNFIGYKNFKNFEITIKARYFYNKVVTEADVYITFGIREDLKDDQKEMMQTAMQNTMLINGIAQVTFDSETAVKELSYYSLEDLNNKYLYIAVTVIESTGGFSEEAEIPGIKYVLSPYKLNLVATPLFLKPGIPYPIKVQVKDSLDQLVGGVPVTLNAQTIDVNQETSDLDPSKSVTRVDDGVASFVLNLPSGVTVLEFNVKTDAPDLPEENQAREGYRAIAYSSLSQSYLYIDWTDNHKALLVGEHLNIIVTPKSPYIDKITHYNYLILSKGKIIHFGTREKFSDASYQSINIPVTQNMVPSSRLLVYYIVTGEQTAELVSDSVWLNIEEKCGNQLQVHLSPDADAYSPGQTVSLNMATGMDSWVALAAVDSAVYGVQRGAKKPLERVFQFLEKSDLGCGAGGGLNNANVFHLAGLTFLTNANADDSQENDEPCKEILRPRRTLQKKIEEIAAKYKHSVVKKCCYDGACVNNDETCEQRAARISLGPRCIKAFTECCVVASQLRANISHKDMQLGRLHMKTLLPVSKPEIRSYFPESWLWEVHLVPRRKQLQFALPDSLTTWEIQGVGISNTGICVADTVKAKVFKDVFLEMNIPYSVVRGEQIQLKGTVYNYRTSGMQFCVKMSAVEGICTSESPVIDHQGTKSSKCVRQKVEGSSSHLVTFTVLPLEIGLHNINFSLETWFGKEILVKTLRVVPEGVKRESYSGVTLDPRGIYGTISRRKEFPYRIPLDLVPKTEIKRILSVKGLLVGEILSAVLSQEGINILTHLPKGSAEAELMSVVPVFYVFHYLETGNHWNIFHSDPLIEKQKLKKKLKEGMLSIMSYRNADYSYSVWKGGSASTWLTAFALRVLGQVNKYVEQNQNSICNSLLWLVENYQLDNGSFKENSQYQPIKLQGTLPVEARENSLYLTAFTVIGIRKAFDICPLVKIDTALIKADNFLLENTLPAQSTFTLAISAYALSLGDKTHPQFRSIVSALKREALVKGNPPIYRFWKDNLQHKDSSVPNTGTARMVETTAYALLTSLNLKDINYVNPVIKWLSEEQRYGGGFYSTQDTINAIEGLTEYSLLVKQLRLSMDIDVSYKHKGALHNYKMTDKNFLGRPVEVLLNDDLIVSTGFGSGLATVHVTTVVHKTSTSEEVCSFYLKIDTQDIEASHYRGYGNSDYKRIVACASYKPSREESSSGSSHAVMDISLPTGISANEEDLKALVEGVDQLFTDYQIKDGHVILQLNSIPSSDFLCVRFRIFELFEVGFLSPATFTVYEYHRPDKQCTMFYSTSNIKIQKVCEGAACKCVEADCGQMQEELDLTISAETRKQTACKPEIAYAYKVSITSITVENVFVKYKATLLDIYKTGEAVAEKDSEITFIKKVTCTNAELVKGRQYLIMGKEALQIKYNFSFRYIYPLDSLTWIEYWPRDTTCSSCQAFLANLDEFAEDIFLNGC

For `CCC[C@H](NC(C)=O)C(=O)N[C@H]1CSCc2cccc(c2)CSC[C@@H](C(N)=O)NC(=O)[C@@H]2CCCN2C(=O)[C@H](CCC)NC(=O)[C@H](CCC)NC(=O)[C@H](CCC(=O)O)NC(=O)[C@H](Cc2c[nH]c3ncccc23)NC(=O)[C@H](Cc2ccc(O)cc2)NC(=O)[C@H](C(C)(C)C)NC(=O)CN(C)C(=O)[C@H](CCC(=O)O)NC(=O)[C@H](Cc2ccc(O)cc2)NC1=O` [Compound R3010, [mXylyl(2,13)]Ac-Nvl-C-Y-E-(N-Me)G-Tbg-Y-azaTrp-E-Nvl-Nvl-P-C-NH2] (Ac-[Nva]CYE[Sar][Tle]Y[Trp(7-aza)]E[Nva][Nva]PC-NH2; linker 2-13 via mXylylene), the pIC50 [1] was less than 4.00.

In the case of `C#CC[C@H](NC(=O)[C@H](Cc1ccccc1)NC(=O)[C@H](CCC(=O)O)NC(=O)[C@H](Cc1c[nH]c2ccccc12)NC(=O)[C@H](Cc1ccc(O)cc1)NC(=O)[C@@H](NC(=O)[C@H](CC(=O)O)NC(=O)[C@@H]1CSCc2cccc(c2)CSC[C@H](NC(C)=O)C(=O)N[C@@H](C(C)C)C(=O)N[C@@H](CCC(=O)O)C(=O)N[C@@H](CCCNC(=N)N)C(=O)N[C@@H](Cc2ccccc2)C(=O)N1)C(C)C)C(N)=O` [Compound R3147, [mXylyl(1,6)]Ac-C-V-E-R-F-C-D-V-Y-W-E-F-Propargyl-Gly-NH2] (Ac-CVERFCDVYWEF[Pra]-NH2; linker 1-6 via mXylylene), the pIC50 [1] was 6.86.

`CC(=O)N[C@H]1CSCc2cccc(c2)CSC[C@@H](C(=O)N[C@@H](CC(=O)O)C(=O)N[C@H](C(=O)N[C@@H](Cc2ccc(O)cc2)C(=O)N[C@@H](Cc2c[nH]c3ncccc23)C(=O)N[C@@H](CCC(=O)O)C(=O)N[C@@H](Cc2ccc(O)cc2)C(=O)N2CCC[C@H]2C(=O)N[C@@H](C(=O)N[C@@H](CCCCN)C(N)=O)c2ccccc2)C(C)(C)C)NC(=O)[C@H](Cc2ccccc2)NC(=O)[C@H](CCCNC(=N)N)NC(=O)[C@H](CCC(=O)O)NC(=O)[C@H](C)NC1=O` [Compound R3162, [mXylyl(1,6)]Ac-C-A-E-R-F-C-D-Tbg-Y-azaTrp-E-Y-P-(D-Phg)-K-NH2] was tested, and the pIC50 [1] was 7.78.

Molecule `CCC[C@H](NC(=O)[C@@H]1CSCc2cccc(c2)CSC[C@H](NC(=O)[C@@H](NC(=O)[C@@H](NC(=O)[C@H](CCC)NC(C)=O)[C@@H](C)O)c2ccccc2)C(=O)N[C@@H](Cc2c[nH]c3ncccc23)C(=O)N[C@@H](CCC(=O)O)C(=O)N[C@@H](Cc2ccc(O)cc2)C(=O)N(C)[C@@H](CO)C(=O)N[C@@H](C)C(=O)N1)C(N)=O` [Compound R3111, [mXylyl(4,10)]Ac-Nvl-T-Phg-C-azaTrp-E-Y-(N-Me)S-A-C-Nvl-NH2] (Ac-[Nva]T[Phg]C[Trp(7-aza)]EY[NMeS]AC[Nva]-NH2; linker 4-10 via mXylylene) has a pIC50 [1] of less than 5.30.

Molecule `CCC[C@H](NC(=O)[C@@H]1CSCc2cccc(c2)CSC[C@H](NC(=O)[C@H](CCC)NC(C)=O)C(=O)N[C@@H](c2ccccc2)C(=O)N[C@H](C)C(=O)N[C@@H](Cc2c[nH]c3ncccc23)C(=O)N[C@@H](CCC(=O)O)C(=O)N[C@@H](Cc2ccc(O)cc2)C(=O)N(C)[C@@H](CO)C(=O)N[C@@H](Cc2c[nH]cn2)C(=O)N1)C(N)=O` [Compound R3133, [mXylyl(2,10)]Ac-Nvl-C-Phg-(D-Ala)-azaTrp-E-Y-(N-Me)S-H-C-Nvl-NH2] (Ac-[Nva]C[Phg][dA][Trp(7-aza)]EY[NMeS]HC[Nva]-NH2; linker 2-10 via mXylylene) has a pIC50 [1] of less than 4.12.

In the case of `CCC[C@H](NC(=O)[C@@H]1CSCc2cccc(c2)CSC[C@H](NC(=O)[C@H](CCC)NC(C)=O)C(=O)N[C@@H](c2ccccc2)C(=O)N[C@@H]([C@@H](C)O)C(=O)N[C@@H](Cc2c[nH]c3ccccc23)C(=O)N[C@@H](CCC(=O)O)C(=O)N[C@@H](Cc2ccc(O)cc2)C(=O)N(C)[C@@H](CO)C(=O)N[C@@H](C)C(=O)N1)C(N)=O` [Compound R3091, [mXylyl(2,10)]Ac-Nvl-C-Phg-T-W-E-Y-(N-Me)S-A-C-Nvl-NH2] (Ac-[Nva]C[Phg]TWEY[NMeS]AC[Nva]-NH2; linker 2-10 via mXylylene), the pIC50 [1] was 6.32.

`CCC[C@H](NC(=O)[C@@H]1CSCc2ccc(cc2)CSC[C@H](NC(=O)[C@H](CCC)NC(C)=O)C(=O)N[C@@H](C2CCCCC2)C(=O)N[C@@H]([C@@H](C)O)C(=O)N[C@@H](Cc2c[nH]c3ncccc23)C(=O)N[C@@H](CCC(=O)O)C(=O)N[C@@H](Cc2ccc(O)cc2)C(=O)N(C)[C@@H](CO)C(=O)N[C@@H](Cc2c[nH]cn2)C(=O)N1)C(N)=O` [Compound R3058, [pXylyl(2,10)]Ac-Nvl-C-Chg-T-azaTrp-E-Y-(N-Me)S-H-C-Nvl-NH2] (Ac-[Nva]C[Chg]T[Trp(7-aza)]EY[NMeS]HC[Nva]-NH2; linker 2-10 via pXylylene) was tested, and the pIC50 [1] was less than 5.00.

In the case of `CCC[C@H](NC(=O)[C@@H](NC(=O)[C@@H]1CCCN1C(=O)[C@H](Cc1ccc(O)cc1)NC(=O)[C@H](CCC(=O)O)NC(=O)[C@H](Cc1c[nH]c2ccccc12)NC(=O)[C@H](Cc1ccc(O)cc1)NC(=O)[C@@H](NC(=O)[C@H](CC(=O)O)NC(=O)[C@@H]1CSCc2cccc(c2)CSC[C@H](NC(C)=O)C(=O)N[C@@H](C)C(=O)N[C@@H](CCC(=O)O)C(=O)N[C@@H](CCCNC(=N)N)C(=O)N[C@@H](Cc2ccccc2)C(=O)N1)C(C)(C)C)c1ccccc1)C(N)=O` [Compound R3148, [mXylyl(1,6)]Ac-C-A-E-R-F-C-D-Tbg-Y-W-E-Y-P-Phg-Nvl-NH2] (Ac-CAERFCD[Tle]YWEYP[Phg][Nva]-NH2; linker 1-6 via mXylylene), the pIC50 [1] was 8.07.

For `CCC[C@H](NC(=O)[C@@H]1CSCc2cccc(c2)CSC[C@H](NC(=O)[C@H](CCC)NC(C)=O)C(=O)N[C@@H](c2ccccc2)C(=O)N[C@@H]([C@@H](C)O)C(=O)N[C@@H](Cc2c[nH]c3ncccc23)C(=O)N[C@@H](CCC(=O)O)C(=O)N[C@@H](Cc2cccc(Cl)c2)C(=O)N(C)[C@@H](CO)C(=O)N[C@@H](C)C(=O)N1)C(N)=O` [Compound R3134, [mXylyl(2,10)]Ac-Nvl-C-Phg-T-azaTrp-E-(3-Cl-Phe)-(N-Me)S-A-C-Nvl-NH2] (Ac-[Nva]C[Phg]T[Trp(7-aza)]E[Phe(3-Cl)][NMeS]AC[Nva]-NH2; linker 2-10 via mXylylene), the pIC50 [1] was less than 5.30.

`CCC[C@H](NC(=O)[C@H](NC(=O)[C@@H]1CCCN1C(=O)[C@H](Cc1ccc(O)cc1)NC(=O)[C@H](CCC(=O)O)NC(=O)[C@H](Cc1c[nH]c2ncccc12)NC(=O)[C@H](Cc1ccc(O)cc1)NC(=O)[C@@H](NC(=O)[C@H](CC(=O)O)NC(=O)[C@@H]1CSCc2cccc(c2)CSC[C@H](NC(C)=O)C(=O)N[C@@H](C(C)C)C(=O)N[C@@H](CCC(=O)O)C(=O)N[C@@H](C)C(=O)N[C@@H](Cc2ccccc2)C(=O)N1)C(C)(C)C)c1ccccc1)C(N)=O` [Compound R3154, [mXylyl(1,6)]Ac-C-V-E-A-F-C-D-Tbg-Y-azaTrp-E-Y-P-(D-Phg)-Nvl-NH2] (Ac-CVEAFCD[Tle]Y[Trp(7-aza)]EYP[dPhg][Nva]-NH2; linker 1-6 via mXylylene) gave a pIC50 [1] of 6.23.

`CCC[C@H](NC(C)=O)C(=O)N[C@H]1CSCc2cccc(c2)CSC[C@@H](C(=O)N[C@@H](CCC(=O)O)C(=O)N[C@@H](Cc2ccc(O)cc2)C(=O)N2CCC[C@H]2C(=O)N[C@H](C(=O)N[C@H](C(N)=O)C(C)(C)C)c2ccccc2)NC(=O)[C@H](CCC(=O)O)NC(=O)[C@H](C(C)(C)C)NC(=O)[C@H](CC(N)=O)NC(=O)[C@H](CC(N)=O)NC(=O)[C@H](Cc2ccc(O)cc2)NC1=O` [Compound R3129, [mXylyl(2,8)]Ac-Nvl-C-Y-N-N-Tbg-E-C-E-Y-P-Phg-Tbg-NH2] (Ac-[Nva]CYNN[Tle]ECEYP[Phg][Tle]-NH2; linker 2-8 via mXylylene) showed a pIC50 (7-azatryptophan variant polypeptides of R3002, inhibition of red blood cell lysis) of less than 4.00 and a pIC50 [1] of less than 4.00.
